# “Also recorded” adds a separate entry of the source.
# Columns and labels:
# Format in all cases: cell-based, human
# [1] = system: histone methylation marks in KYSE150 cells; test: Western blotting of histone methylation marks in KYSE150 cells; conditions: KYSE150 cells, 5, 10, 15 μM, 48 hours
# Procedure: Next, the cellular effects of methylstat were evaluated on a variety of histone methylation marks in KYSE150 cells. DMOG and DFO were used as positive controls, since they are known cell-active inhibitors of iron (II)- and α-ketoglutarate-dependent dioxygenases.
# (§1) Total lysates of cells were generated from the cells lysed in CelLytic M Cell Lysis (Sigma) with protease inhibitor cocktail (Sigma), mixed with 2×LSB buffer (100 mM Tris-HCl pH 6.8, 200 mM DTT, 4% SDS, 20% glycerol and 0.2% bromophenol blue) and boiled for 5 min before SDS-PAGE. BCA assay (Thermo) was applied for protein qualification.
# Histone extraction was generated from the cells lysed in Triton Extraction Buffer (TEB: PBS containing 0.5% Triton X 100 (v/v), 2 mM phenylmethylsulfonyl fluoride (PMSF), 0.02% (w/v) NaN3) at the density of 10^7 cells/mL. 0.2 N HCl was used to extract histone over night at 4° C.
# [2] = system: prolyl hydroxylases (PHDs); test: Cellular HIF-1α level (prolyl hydroxylase specificity) in HeLa cells; conditions: 24 hours, methylstat 5, 10, 15 μM
# Description: (§2) To assess the specificity of methylstat in vivo, another iron(II)- and α-ketoglutarate-dependent dioxygenases, prolyl hydroxylases (PHDs), was examined. PHDs have been reported to regulate normoxic inactivation of hypoxia-inducible factors (HIFs) by hydroxylating specific prolyl residues of HIFs. […] DMOG and DFO have been used to mimic hypoxia conditions by inhibiting PHDs in vivo. […] Similar results were also observed in HeLa cells (see FIG. 7).
# as §1
# [3] = system: prolyl hydroxylases (PHDs); test: Cellular HIF-1α level (prolyl hydroxylase specificity) in MCF7 cells; conditions: 24 hours, methylstat up to 15 μM, DFO 150 μM, DMOG 1 and 2 mM
# Description: as §2, §1
# KYSE150 cells = test: Cell viability / growth inhibition assay (CellTiter-Glo); conditions: 48 hours
# Description: To examine the cellular activity of the compounds of the invention, oesophageal carcinoma cell line KYSE150 was used in a growth inhibition assay because KYSE150 cells have been reported to contain several copies of the GASC1 gene, and it has been reported that inhibition of GASC1 expression using short hairpin RNA causes a significant reduction of proliferation in KYSE150 cells. […] Without being bound by any theory, it is believed that this low activity in cells was possibly due to the poor cellular uptake of the zwitterion form in which it typically exists under physiological conditions. Therefore, its methyl ester prodrug 2 (FIG. 1a), called methylstat was tested.
# To screen and validate the cellular toxicity of compounds, a cell viability assay was carried out using CellTiter-Glo luminescent cell viability assay kit (Promega, Madison USA). KYSE150 cells were seeded on blank-walled 384-well plates with KYSE medium at densities of 1,000 cells/well. The medium volume for each well was 40 μL. Cells were incubated at 37° C. in 5% CO2/95% air for 24 hours. The medium was removed from each well and replaced with 38 μL, of warmed fresh medium and 2 μL, compound solution in 2% DMSO/98% H2O. The compounds were added into medium at different concentrations with the final concentration of DMSO as 0.1%. After incubation at 37° C. with 5% CO2/95% air for another 48 hours, the plates were equilibrated to room temperature for 30 minutes. 40 μL, of CellTiter-Glo reagent (Promega, Madison USA) was added to each well and mixed for 2 minutes on an orbital shaker. The plate was incubated at room temperature for another 10 minutes to stabilize luminescent signal. The luminescence of each sample was measured in a plate-reading illuminometer (Beckman Coulter DTX 880) with parameters of 1-minute lag time and 0.1 second/well read time. The experiments were performed in triplicate and repeated on two separately initiated cultures.
smiles,measurement,setting,value
COC(=O)/C=C/C(=O)N(O)CCCCNCc1ccc(COC(=O)Nc2cccc3ccccc23)cc1 [methylstat],hypermethylation of histone proteins (Western blot),[1],induced hypermethylation of lysine residues; also recorded: induced hypermethylations of histone proteins in a concentration-dependent manner
same,cellular HIF-1α levels / prolyl hydroxylase inhibition,[2],did not significantly inhibit prolyl hydroxylases
same,cellular HIF-1α levels / prolyl hydroxylase inhibition,[3],did not affect the cellular HIF-1α levels; also recorded: did not significantly inhibit prolyl hydroxylases
same,KYSE150 cell growth inhibition,KYSE150 cells; compound 1 at up to 100 μM,inhibits KYSE150 cell growth
same,GI50,"KYSE150 cells; Homo sapiens, KYSE-150, KYSE150 cells, read-out: half maximal growth inhibitory concentration (GI50)",~5.1 µM

# Source: US8735622B2, “Histone demethylase inhibitors and methods for using the same” (The Regents of the University of Colorado, a body corporate, priority 2011, dated 2014)
